Columns and labels:
tumor = conditions: Phase II, cytotoxic doses; cited from earlier work
[1] = tested on: human epidermoid cells, virally infected with HSV-2
[2] = human, inhaled or intranasal
[3] = tested on: human epidermoid cells, virally infected with HSV-2; conditions: cited from earlier work
[4] = tested on: human epidermoid cells, virally infected with HSV-2; conditions: cited from earlier work; remark: listed apart in the source

Compound | hematologic toxicity (tumor) | overall tumor response rate (tumor) | Trichothecene in Vitro Concentration, Cytotoxic Min [1] [ng/mL] | Trichothecene in Vitro Concentration, Toxic Lo [1] [ng/mL] | Trichothecene in Vitro Concentration, Cytotoxic Max ([1]; human) [ng/mL] | In Vivo Dose for Average 1200 Gram Lungs, Cytotoxic Max [2] [ng] | Trichothecene in Vitro Concentration, Inhibitory 50% [3] [ng/mL] | Trichothecene in Vitro Concentration, Inhibitory 80% [3] [ng/mL] | Trichothecene in Vitro Concentration, Inhibitory 90% [3] [ng/mL] | Trichothecene in Vitro Concentration, Inhibitory 99% [3] [ng/mL] | inhibition of hyperactive protein synthesis [3] [%] | concentrations that did not reduce cell viability [4]
CC(=O)OC[C@]12CCC(C)=C[C@H]1O[C@@H]1[C@H](O)[C@@H](OC(C)=O)[C@@]2(C)[C@]12CO2 [Anguidine] | considerable hematologic toxicity | low |  |  |  |  |  |  |  |  |  | 
CC(=O)OC[C@]12CCC(C)=C[C@H]1O[C@@H]1[C@H](O)[C@@H](OC(C)=O)[C@@]2(C)[C@]12CO2 [DAS] |  |  | 6 | 201 | 200 | 240000 | 2.3 | 4.0 | 4.5 | 5.0 | ~99 | up to 200 ng/ml

From patent publication US7015244B1 (priority 1998, dated 2006)
